Test results as given in patent US12655106B2 (Eikonizo Therapeutics, Inc., priority 2021, dated 2026).

What was measured:
[1] = molecular target: T1, Full length Human HDAC6 (Homo sapiens, UniProt Q9UBN7); assay: Caliper endpoint assay for HDAC enzymatic activity (HDAC6); assay type: biochemical; details: for IC50: in vitro enzymatic, Caliper endpoint assay, 30 min pre-incubation, 1 μM substrate peptide; for Selectivity (6 v 8): ratio of HDAC8 IC50/HDAC6 IC50
T1 construct: Full length Human HDAC6; FLAG (C); host or cells: baculovirus expression system
T1 sequence (Q9UBN7 1-1215): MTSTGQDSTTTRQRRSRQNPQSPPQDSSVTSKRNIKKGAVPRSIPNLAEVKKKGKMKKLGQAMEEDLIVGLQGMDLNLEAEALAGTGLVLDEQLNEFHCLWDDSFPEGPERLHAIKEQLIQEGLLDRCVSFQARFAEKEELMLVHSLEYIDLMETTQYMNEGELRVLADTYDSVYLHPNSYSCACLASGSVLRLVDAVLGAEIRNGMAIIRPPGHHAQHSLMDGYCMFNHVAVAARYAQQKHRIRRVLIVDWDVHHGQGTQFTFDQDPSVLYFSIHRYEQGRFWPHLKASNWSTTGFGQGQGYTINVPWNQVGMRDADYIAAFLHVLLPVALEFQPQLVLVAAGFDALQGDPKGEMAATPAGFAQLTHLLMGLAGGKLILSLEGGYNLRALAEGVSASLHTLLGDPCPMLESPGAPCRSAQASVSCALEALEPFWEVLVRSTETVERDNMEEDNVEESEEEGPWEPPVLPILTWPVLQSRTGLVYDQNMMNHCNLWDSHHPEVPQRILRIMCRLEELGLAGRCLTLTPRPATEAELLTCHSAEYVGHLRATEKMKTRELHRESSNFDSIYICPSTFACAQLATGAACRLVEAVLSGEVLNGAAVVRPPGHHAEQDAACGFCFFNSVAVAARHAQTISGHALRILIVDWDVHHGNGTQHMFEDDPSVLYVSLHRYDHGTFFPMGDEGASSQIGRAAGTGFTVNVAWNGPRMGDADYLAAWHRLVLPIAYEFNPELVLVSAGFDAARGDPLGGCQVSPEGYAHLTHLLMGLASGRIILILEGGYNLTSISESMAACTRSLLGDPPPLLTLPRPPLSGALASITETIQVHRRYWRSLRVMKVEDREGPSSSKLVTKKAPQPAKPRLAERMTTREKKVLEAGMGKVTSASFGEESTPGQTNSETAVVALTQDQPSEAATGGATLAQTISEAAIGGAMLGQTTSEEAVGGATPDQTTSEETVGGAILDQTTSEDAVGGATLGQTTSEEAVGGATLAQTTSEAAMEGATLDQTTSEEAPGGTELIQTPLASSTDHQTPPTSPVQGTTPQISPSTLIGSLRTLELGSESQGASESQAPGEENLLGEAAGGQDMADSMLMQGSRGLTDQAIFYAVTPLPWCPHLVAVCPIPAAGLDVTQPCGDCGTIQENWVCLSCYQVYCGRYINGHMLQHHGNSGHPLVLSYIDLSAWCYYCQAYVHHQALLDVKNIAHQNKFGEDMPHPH

[2] = molecular target: T2, Full length Human HDAC8 (Homo sapiens, UniProt Q9BY41); assay: Caliper endpoint assay for HDAC enzymatic activity (HDAC8); assay type: biochemical; details: in vitro enzymatic, 30 min pre-incubation, 1 μM substrate peptide
T2 construct: Full length Human HDAC8; HIS (N); host or cells: baculovirus expression system
T2 sequence (Q9BY41 1-377): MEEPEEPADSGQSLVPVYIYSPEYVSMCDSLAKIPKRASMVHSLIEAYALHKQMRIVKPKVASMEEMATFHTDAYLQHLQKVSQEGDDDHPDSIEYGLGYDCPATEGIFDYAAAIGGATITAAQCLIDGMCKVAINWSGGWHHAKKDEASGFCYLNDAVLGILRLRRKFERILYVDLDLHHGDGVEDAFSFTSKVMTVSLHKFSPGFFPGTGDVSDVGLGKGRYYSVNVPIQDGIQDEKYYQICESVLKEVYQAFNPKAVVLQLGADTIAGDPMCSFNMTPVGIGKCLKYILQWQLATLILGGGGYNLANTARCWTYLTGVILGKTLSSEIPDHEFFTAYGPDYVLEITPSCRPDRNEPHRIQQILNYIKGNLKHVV

IC50 [1]	Selectivity (6 v 8) [1]	IC50 [2]	SMILES
1 to 100 nM	IV (IV: >100-1000)	1000 to 10000 nM	O=C(NO)c1cc(F)c2c(c1)CCN([C@@H]1CCC3(CCCC3)C1)C2 (single isomer, unassigned) [Compound 184]
1 to 100 nM	IV (IV: >100-1000)	1000 to 10000 nM	O=C(NO)c1cc(F)c2c(c1)CCN(C1CC3(C1)CN(C1CC1)C3)C2 [Compound 291, 2-(2-cyclopropyl-2-azaspiro[3.3]heptan-6-yl)-8-fluoro-N-hydroxy-1,2,3,4-tetrahydroisoquinoline-6-carboxamide]
1 to 100 nM	IV (IV: >100-1000)	1000 to 10000 nM	CC[C@H]1Cc2c(F)cc(C(=O)NO)cc2CN1CC1CCCCC1 (single isomer, unassigned) [Compound 518]
1 to 100 nM	IV (IV: >100-1000)	1000 to 10000 nM	O=C(NO)c1cc(F)c2c(c1)CCN([C@H]1C[C@@]3(CCCN(C4CC4)C3)C1)C2 (single isomer, unassigned) [Compound 346, 2-((2s,4r)-6-cyclopropyl-6-azaspiro[3.5]nonan-2-yl)-8-fluoro-N-hydroxy-1,2,3,4-tetrahydroisoquinoline-6-carboxamide]
1 to 100 nM		1000 to 10000 nM	CC[C@@H](c1ccccc1)N1CCc2cc(C(=O)NO)cc(F)c2C1 [Compound 31]
1 to 100 nM	IV (IV: >100-1000)	10000 to 100000 nM	CN1CCC2(CC1)CC(N1CCc3cc(C(=O)NO)cc(F)c3C1)C2 [Compound 198, 8-fluoro-N-hydroxy-2-(7-methyl-7-azaspiro[3.5]nonan-2-yl)-1,2,3,4-tetrahydroisoquinoline-6-carboxamide]
1 to 100 nM	IV (IV: >100-1000)	10000 to 100000 nM	O=C(NO)c1cc(F)c2c(c1)CCN(C1CC3(CCCO3)C1)C2 (single isomer, unassigned) [Compound 191, 8-fluoro-N-hydroxy-2-(5-oxaspiro[3.4]octan-2-yl)-1,2,3,4-tetrahydroisoquinoline-6-carboxamide]
1 to 100 nM	IV (IV: >100-1000)	10000 to 100000 nM	O=C(NO)c1cc(F)c2c(c1)CCN([C@@H]1CC[C@@]13CCOC3)C2 (single isomer, unassigned) [Compound 317]
100 to 1000 nM	IV (IV: >100-1000)	10000 to 100000 nM	CC[C@@H]1Cc2c(F)cc(C(=O)NO)cc2CN1C1CC(C)(C)C1 (single isomer, unassigned) [Compound 592]
1 to 100 nM		1000 to 10000 nM	C[C@@H]1C[C@H]2c3c(F)cc(C(=O)NO)cc3CCN2C1 (single isomer, unassigned) [Compound 152]
1 to 100 nM	IV (IV: >100-1000)	10000 to 100000 nM	CC[C@H]1Cc2c(F)cc(C(=O)NO)cc2CN1C1CC2(CCOCC2)C1 (single isomer, unassigned) [Compound 591]
1 to 100 nM		1000 to 10000 nM	O=C(NO)c1ccc2c(c1)C[C@H]1COCC(=O)N1C2 (single isomer, unassigned) [Compound 134]
1 to 100 nM	IV (IV: >100-1000)	10000 to 100000 nM	NC12CC(CN3CCc4cc(C(=O)NO)cc(F)c4C3)(C1)C2 [Compound 486, 2-[(3-amino-1-bicyclo[1.1.1]pentanyl)methyl]-8-fluoro-3,4-dihydro-1H-isoquinoline-6-carbohydroxamic acid]
100 to 1000 nM		1000 to 10000 nM	O=C(NO)c1cc(F)c2c(c1)C[C@H]1CC3(CCCCC3)CN1C2 (single isomer, unassigned) [Compound 135]
1 to 100 nM	V (V: >1000)	10000 to 100000 nM	O=C(NO)c1cc(F)c2c(c1)CCN(C1CCC3(CCC3)CC1)C2 [Compound 192, 8-fluoro-2-spiro[3.5]nonan-7-yl-3,4-dihydro-1H-isoquinoline-6-carbohydroxamic acid]
1 to 100 nM	IV (IV: >100-1000)	10000 to 100000 nM	CC(=O)N1CCC2(CCC(N3CCc4cc(C(=O)NO)cc(F)c4C3)C2)CC1 (stereo not shown) [Compound 419, 2-(8-acetyl-8-azaspiro[4.5]decan-3-yl)-8-fluoro-3,4-dihydro-1H-isoquinoline-6-carbohydroxamic acid]
1 to 100 nM	IV (IV: >100-1000)	10000 to 100000 nM	O=C(NO)c1cc(F)c2c(c1)CCN(C1CC3(CCOC3)C1)C2 (single isomer, unassigned) [Compound 188, 8-fluoro-N-hydroxy-2-(6-oxaspiro[3.4]octan-2-yl)-1,2,3,4-tetrahydroisoquinoline-6-carboxamide]
1 to 100 nM		1000 to 10000 nM	O=C(NO)c1cc(F)c2c(c1)C[C@@H]1CC3(CCCCC3)CN1C2 (single isomer, unassigned) [Compound 136]
1 to 100 nM	IV (IV: >100-1000)	1000 to 10000 nM	O=C(NO)c1cc(F)c2c(c1)CCN(C1CC[C@@]13CCCO3)C2 (single isomer, unassigned) [Compound 319]
1 to 100 nM	V (V: >1000)	> 100000 nM	CC[C@H]1Cc2c(F)cc(C(=O)NO)cc2CN1CC1C2CC1CN(C)C2 (single isomer, unassigned) [Compound 531]
1 to 100 nM	IV (IV: >100-1000)	10000 to 100000 nM	O=C(NO)c1cc(F)c2c(c1)CCN([C@@H]1CCN(Cc3ccccc3)C3(CCC3)C1)C2 (single isomer, unassigned) [Compound 444]
100 to 1000 nM	III (III: >10-100)	1000 to 10000 nM	CC[C@H](c1ccc(C(=O)NO)cc1F)N1CCC2(CCCCC2)C1 (single isomer, unassigned) [Compound 238]
1 to 100 nM	IV (IV: >100-1000)	10000 to 100000 nM	CC(=O)N1CCC2(CCC2N2CCc3cc(C(=O)NO)cc(F)c3C2)CC1 (stereo not shown) [Compound 360, 2-(7-acetyl-7-azaspiro[3.5]nonan-3-yl)-8-fluoro-3,4-dihydro-1H-isoquinoline-6-carbohydroxamic acid]

SMILES	IC50 [1]	Selectivity (6 v 8) [1]	IC50 [2]
O=C(NO)c1cc(F)c2c(c1)CCN1CCC[C@@H]21 [Compound 79]	1 to 100 nM	IV (IV: >100-1000)	1000 to 10000 nM
O=C(NO)c1ccc2c(c1)CCN1CCCC[C@H]21 [Compound 90]	1000 to 10000 nM	II (II: >1-10)	1000 to 10000 nM
CN1[C@@H]2CC[C@H]1CC(CN1CCc3cc(C(=O)NO)cc(F)c3C1)C2 (single isomer, unassigned) [Compound 482]	1 to 100 nM	IV (IV: >100-1000)	1000 to 10000 nM
CC[C@@H]1Cc2c(F)cc(C(=O)NO)cc2CN1C[C@H]1C[C@H]2CC[C@@H](C1)N2C (single isomer, unassigned) [Compound 572]	1 to 100 nM	III (III: >10-100)	1000 to 10000 nM
O=C(NO)c1cc(F)c2c(c1)CCN(CC1CC3CCC(C1)N3C1CC1)C2 (stereo not shown) [Compound 484, 2-[(8-cyclopropyl-8-azabicyclo[3.2.1]octan-3-yl)methyl]-8-fluoro-3,4-dihydro-1H-isoquinoline-6-carbohydroxamic acid]	1 to 100 nM	IV (IV: >100-1000)	1000 to 10000 nM
